From patent US10791989B2, “Magnetic resonance imaging of poly-L-glutamate” (The Trustees of The University of Pennsylvania, priority 2013, dated 2020)

How the values were obtained:
[1] = target: T1, cathepsin B (Homo sapiens, UniProt P07858); test: Proton MRS of phantoms (PLG+cathepsin B) on 7T whole-body scanner; format: biochemical; settings: phantom with PLG and cathepsin B
Method: (§1) Both the CEST imaging and MRS were performed.

[2] = target: T1, cathepsin B; test: CEST imaging of phantoms (glutamate, PLG, PLG+cathepsin B) on 7T whole-body scanner; format: biochemical; settings: phantom, room temperature; for CEST contrast at 3 ppm: substance alone
Method: as §1

[3] = tested on: F98 tumor cells; settings: after addition of PLG vs without PLG, 9.4 T
Method: as §1
F98 cell line is known to be aggressive and expresses cathepsin B and other proteases.

| Compound | MR spectrum change with cathepsin B [1] | CEST contrast at 3 ppm after addition of cathepsin B ([2]; PLG with cathepsin B) | CEST contrast at 3 ppm [2] | increase in CEST contrast at 3 ppm [3] [%] |
| --- | --- | --- | --- | --- |
| Poly(L-glutamic acid) [PLG] | cleavage of 2.3 and 4.1 ppm peaks | appreciable CEST contrast | No CEST contrast | −16 |
| N[C@@H](CCC(=O)O)C(=O)O [Glu, glutamate] |  |  | strong CEST contrast |  |
